Values joined by “and” are separate entries in the source; they are usually repeats but may differ in a detail not shown here. Equal entries are not always repeated. Where two headings read alike, the source gives them in different places.
Key:
mouse = test: Anesthetic effect in mice after subcutaneous or intravenous injection of aqueous solutions; assay type: in vivo
Description: Butyric acid was dissolved in water to form an 8 M solution. 0.5 mL of the 8 M solution of butyric acid was injected subcutaneously (at the back of the neck) into the mouse.
3-hydroxybutyric acid was dissolved in water to form 1 M, 1.5 M, and 2 M solutions. 0.2 mL of a 1.5 M solution of 3-hydroxybutyric acid was injected into a tail vein of a CD-1 mouse. […] This was repeated for at least 2 more times on subsequent days.
Ethylmalonic acid was dissolved in water to form 2 M, 3 M, and 4 M solutions. 0.2 mL of a 3 M solution of ethylmalonic acid was injected into a tail vein of a mouse. […] This was repeated for at least 2 more times on subsequent days.
Ethylmalonic acid was dissolved in water to form a 4 M solution. 0.5 mL of the 4 M solution of ethylmalonic acid was injected subcutaneously into the mouse.

CF-1 mice = test: Anticonvulsant test: intravenous metrazol (pentylenetetrazol) infusion, time to twitch and seizure; assay type: in vivo; conditions: individual CF-1 mouse (Entry)
Description: CF-1 mice were used in this study. Number 20 PE tubing to cannulate a mouse tail vein was used. An infusion pump was used to deliver a solution at a rate of 0.34 mL/min. A hemostat was used to prevent backflow in the PE tubing before the experiment stated. To begin the experiment, the hemostat that was clamped to the PE 20 tubing was removed, the infusion of the solution was started into the tail IV of the mouse, and the timer was started.
The study reflects the time in seconds from the start of the infusion to the time of twitch and onset of seizure, or 90 seconds, whichever is sooner. When the seizure occurs, the infusion is turned off.
As a control, metrazol (pentylenetetrazol) in a 0.5% solution (5 mg/mL) in water was prepared. Pentylenetetrazol is used as a control to study seizure phenomena in and to identify compounds that may control seizure susceptibility. Solutions of 8 M butyric acid and 1.5 M 3-hydroxybutyric acid were made.
The time to twitch and time to seizure of the mouse in seconds is recorded in Tables 3-5, below.

Tadpoles = test: Tadpole movement suppression (anesthetic efficacy); assay type: in vivo
Description: Tadpoles were placed in a petri dish containing aquarium water. Four to eight tadpoles were placed in each petri dish. The aquarium water contained the specified test compound at the listed concentration. When the tadpoles stopped moving, a plastic rod was used to elicit motion once again by contact between the rod and tadpole. […] From this and the number of subjects, the percent of tadpoles in which movement was suppressed were calculated.
After 1 to 30 minutes, they were again contacted with a rod to ensure the anesthetic effect had worn off
In some examples, subanesthetic concentrations of ethanol were added into the aquarium water. Tadpoles in which movement was prevented with exposure to a test compound and ethanol but not with exposure to a test compound alone were classified as partial anesthetics.

mice = conditions: intravenously; for Observed effect on the animals: 62.5 mM solution in intralipid
[1] = 1.5 M 3-hydroxybutyric acid solution plus metrazol
[2] = 8 M butyric acid solution plus metrazol
[3] = Concentration (mM): 100 + 150 EtOH
[4] = Concentration (mM): 250 + 150 EtOH
[5] = 0.5% metrazol tail vein infusion 0.34 mL/min

## CC(O)CC(=O)O (centres unmarked) [3-hydroxybutyric acid]
mouse; 0.2 mL of 1.5 M solution in water, tail vein, CD-1 mouse
  Observed effect on the mouse: became unconscious or anesthetic
mouse; 1 M solution in water, tail vein, CD-1 mouse
  Observed effect on the mouse: did not have any observable effect
mouse; 2 M solution in water, tail vein, CD-1 mouse
  Lethality: lethal
CF-1 mice; [1]
  3-Hydroxybutyric Acid and Metrazol Time to Seizures: 74 seconds and 53 seconds (3×) and 48 seconds (2×) and 65 seconds and 61 seconds
  3-Hydroxybutyric Acid and Metrazol Time to Twitch: 54 s and 49 s and 47 s and 38 s and 50 s and 45 s and 41 s and 56 s

## CCCC(=O)O [Butyric acid]
Tadpoles; Concentration (mM): 62.5
  Movement suppressed (%): 100%
Tadpoles; Concentration (mM): 125
  Movement suppressed (%): 100%
Tadpoles; Concentration (mM): 250
  Movement suppressed (%): 100%
Tadpoles; Concentration (mM): 500
  Movement suppressed (%): 100%
mouse; 0.2 mL of 8 M solution in water, intravenously through mouse tail vein
  Lethality: lethal
mouse; 0.5 mL of 8 M solution in water, subcutaneously (back of the neck), mouse
  Time until mouse woke up: several hours later
CF-1 mice; [2]
  Butyric Acid and Metrazol Time to Seizures: 51 seconds and 50 seconds (2×) and 47 seconds and 57 seconds (3×) and 42 seconds and 66 seconds and 41 seconds and 44 seconds and 38 seconds and 65 seconds
  Butyric Acid and Metrazol Time to Twitch: 38 seconds and 42 seconds and 44 seconds and 50 seconds and 34 seconds (2×) and 53 seconds (2×) and 48 seconds and 36 seconds (2×) and 35 seconds (2×)

## CCC(C(=O)O)C(=O)O [Ethyl Malonic Acid, 2-Ethylmalonic acid]
Tadpoles; Concentration (mM): 16
  Movement suppressed (%): 0%
Tadpoles; Concentration (mM): 62.5
  Movement suppressed (%): 0%
Tadpoles; Concentration (mM): 125
  Movement suppressed (%): 100%
Tadpoles; Concentration (mM): 250
  Movement suppressed (%): 100%
mouse; 0.2 mL of 3 M solution in water, tail vein, mouse
  Observed effect on the mouse: became unconscious
mouse; 0.5 mL of 4 M solution in water, subcutaneously, mouse
  Observed effect on the mouse: became sedated, anesthetized, or lose consciousness
mouse; 2 M solution in water, tail vein, mouse
  Observed effect on the mouse: did not have any observable effect
mouse; 4 M solution in water, tail vein, mouse
  Lethality: lethal

## NC(=O)C[C@H](N)C(=O)O [L-Asparagine, Asparagine]
Tadpoles; Concentration (mM): 100
  Movement suppressed (%): 0%
Tadpoles; [3]
  Movement suppressed (%): 66%

## N[C@@H](CO)C(=O)O [L-Serine, Serine]
Tadpoles; Concentration (mM): 114
  Movement suppressed (%): 0%
Tadpoles; Concentration (mM): 229 + 150 EtOH
  Movement suppressed (%): 60%
Tadpoles; Concentration (mM): 300 + 150 EtOH
  Movement suppressed (%): 100%

## CC(C)[C@H](N)C(=O)O [L-valine, Valine]
Tadpoles; Concentration (mM): 7.8
  Movement suppressed (%): 0%
Tadpoles; Concentration (mM): 31
  Movement suppressed (%): 0%
Tadpoles; Concentration (mM): 125
  Movement suppressed (%): 0%
Tadpoles; Concentration (mM): 500
  Movement suppressed (%): 40%
Tadpoles; Concentration (mM): 500 + 150 EtOH
  Movement suppressed (%): 100%

## CC(=O)CCC(=O)O [Levulinic acid, 4-oxopentanoic acid]
Tadpoles; [3]
  Movement suppressed (%): 50%

## NCCCC[C@H](N)C(=O)O [Lysine]
Tadpoles; [4]
  Movement suppressed (%): 50%

## O=C(O)C(O)c1ccccc1 (centres unmarked) [Mandelic acid, 2-Hydroxy-2-phenylacetic acid]
Tadpoles; Concentration (mM): 250
  Movement suppressed (%): 0%
Tadpoles; Concentration (mM): 300
  Movement suppressed (%): 100%
Tadpoles; Concentration (mM): 500
  Movement suppressed (%): 100%

## CC(CC(=O)O)C(=O)O (centres unmarked) [Methylsuccinic acid]
Tadpoles; [4]
  Movement suppressed (%): 43%

## C1CCc2nnnn2CC1 [Metrazol, pentylenetetrazol, reference compound]
CF-1 mice; [5]
  Metrazol alone Time to Seizures: 43 seconds (2×) and 42 seconds (2×) and 59 seconds and 45 seconds and 39 seconds and 49 seconds (2×)
  Metrazol alone Time to Twitch: 34 seconds (2×) and 33 seconds and 36 seconds (2×) and 37 seconds and 52 seconds and 31 seconds and 43 seconds

## O=C(O)CC(=O)C(=O)O [Oxaloacetic acid, 2-Oxosuccinic acid]
Tadpoles; Concentration (mM): 125 + 150 EtOH
  Movement suppressed (%): 100%

## O=C(O)C(=O)Cc1ccccc1 [Phenylpyruvic acid, 2-Oxo-3-phenylpropanoic acid]
Tadpoles; Concentration (mM): 62.5
  Movement suppressed (%): 100%
Tadpoles; Concentration (mM): 125
  Movement suppressed (%): 100%

## O=C(O)[C@@H]1CCCN1 [Proline]
Tadpoles; Concentration (mM): 103
  Movement suppressed (%): 0%
Tadpoles; Concentration (mM): 411 + 150 EtOH
  Movement suppressed (%): 100%

## O=C(O)c1ccc2ccccc2n1 [Quinaldic acid, Quinoline-2-carboxylic acid]
Tadpoles; Concentration (mM): 25
  Movement suppressed (%): 16%
Tadpoles; Concentration (mM): 25 + 150 EtOH
  Movement suppressed (%): 60%

## C[C@@H](O)CC(=O)O [R-3-hydroxybutyric acid, (R)-3-Hydroxybutanoic acid]
Tadpoles; Concentration (mM): 100
  Movement suppressed (%): 0%
Tadpoles; Concentration (mM): 200
  Movement suppressed (%): 0%
Tadpoles; Concentration (mM): 250
  Movement suppressed (%): 0%
Tadpoles; Concentration (mM): 300
  Movement suppressed (%): 0%
Tadpoles; Concentration (mM): 350
  Movement suppressed (%): 0%
Tadpoles; Concentration (mM): 400
  Movement suppressed (%): 46%
Tadpoles; Concentration (mM): 500
  Movement suppressed (%): 100%

## C[C@H](O)CC(=O)O [S-3-hydroxybutyric acid, (S)-3-Hydroxybutanoic acid]
Tadpoles; Concentration (mM): 100
  Movement suppressed (%): 0%
Tadpoles; Concentration (mM): 200
  Movement suppressed (%): 0%
Tadpoles; Concentration (mM): 250
  Movement suppressed (%): 14%
Tadpoles; Concentration (mM): 300
  Movement suppressed (%): 17%
Tadpoles; Concentration (mM): 350
  Movement suppressed (%): 50%
Tadpoles; Concentration (mM): 400
  Movement suppressed (%): 92%
Tadpoles; Concentration (mM): 500
  Movement suppressed (%): 100%

## O=C(O)CCCCCCC(=O)O [Suberic acid, Octanedioic acid]
Tadpoles; Concentration (mM): 10
  Movement suppressed (%): 50%

## N[C@@H](Cc1c[nH]c2ccccc12)C(=O)O [Tryptophan]
Tadpoles; Concentration (mM): 12.5
  Movement suppressed (%): 0%
Tadpoles; Concentration (mM): 12.5 + 150 EtOH
  Movement suppressed (%): 80%

## CCOC(=O)C(CC)C(=O)OCC [diethyl ethyl malonate, Diethyl ethyl malonate]
mice
  Observed effect on the animals: lethargic and those loss coordination
mice; 250 mM solution in intralipid
  Lethality: lethal
mice; 1M solution in intralipid
  Lethality: lethal

## CCOC(=O)C(CC)(C(=O)OCC)c1ccccc1 [diethyl ethylphenylmalonate]
mice
  Observed effect on the animals: lethargic and those loss coordination
mice; 250 mM solution in intralipid
  Lethality: lethal
mice; 1M solution in intralipid
  Lethality: lethal

## CCOC(=O)[C@@H](O)c1ccccc1 [ethyl (S)-(+)-mandelate]
mice
  Observed effect on the animals: lethargic and those loss coordination
mice; 250 mM solution in intralipid
  Lethality: lethal
mice; 1M solution in intralipid
  Lethality: lethal

## CCCC(=O)OCC [ethyl butyrate]
mice
  Observed effect on the animals: lethargic and those loss coordination
mice; 250 mM solution in intralipid
  Lethality: lethal
mice; 1M solution in intralipid
  Lethality: lethal

## Fumaric acid
Tadpoles; Concentration (mM): 25
  Movement suppressed (%): 40%

## Guanidine
Tadpoles; Concentration (mM): 62.5
  Movement suppressed (%): 0%

## Succinic acid
Tadpoles; Concentration (mM): 62.5
  Movement suppressed (%): 0%

## Tartaric acid [L-Tartaric acid]
Tadpoles; Concentration (mM): 50
  Movement suppressed (%): 0%

## ethyl isovaleric acid
mice
  Observed effect on the animals: lethargic and those loss coordination
